Measured values taken from patent publication US20260144796A1, “Compounds and Methods for Improving Health” (Acurx Pharmaceuticals, Inc., priority 2022, published 2026).
Converted amounts (≈) assume the structure as drawn. “Also recorded” adds a separate entry of the source. Read-outs that look alike come from different tables or passages of the source.

How the values were obtained:
[1] = test system: C. difficile CD 630 and R20291 cell morphology; assay: Morphology assessment by bright field microscopy; type: cell-based; conditions: sub-inhibitory to MIC, 24 hours, listed as IBZ
Description: Cultures were then incubated in an anaerobic chamber at 37° C. in for 24 hrs. Pre-cultures were diluted to approximately 10^6CFU/mL (1:100) in fresh BHI comprising 0.25×MIC (0.5 ug/mL) of the appropriate antibiotic. Following incubation for 24 hrs, EVOS imaging system (Thermofisher) was used to take bright field pictures at 40× magnification.

[2] = test system: C. difficile biofilms (strains R20291, CD 630); assay: C. difficile in vitro biofilm studies (MIC, MBIC, CFU/mL, Crystal Violet biomass); type: cell-based
Description: A basic flow chart outlining the experimental procedure used in these studies may be seen in FIG. 14. Briefly, C. difficile laboratory strain R20291 was grown in Brain heart infusion-supplemented (BHIS) medium. […] Biofilm formation was established via anaerobic incubation of the cultures at 37° C. for 24 hrs. Early biofilm formation was established at 4 hrs, whereas late biofilm formation was established at 24 hrs, 48 hrs, and 72 hrs. Following biofilm formation, the BHIS medium was removed and replaced with fresh media comprising no antibiotic (control), ibezapolstat (IBZ), Fidaxomicin (FDX), or metronidazole (MTZ). The cultures were then anaerobically incubated for 24 hrs or subjected to time course tests. Biofilm biomass was measured using Crystal Violet staining. […] Data was measured and recorded using Cytation 3 calibrated to read at A570. Data was analyzed by comparing percent growth of antibiotic treated cultures with controls.

[3] = test system: representative Actinobacteria (Bifidobacteriaceae and Coriobacteriaceae); assay: MIC, isolated gut microbiota species: Actinobacteria; type: cell-based; conditions: inactive
Description: (§1) Strains plated onto blood agar (Hardy Diagnostics) with a 24-hour incubation at 37° C. in an anaerobic environment (Coy vinyl anaerobic chamber). After incubation, 3-5 well-isolated colonies were suspended into 5 mL of BHI broth (Criterion Media). The cultures were incubated in an anaerobic chamber for 24 hours to achieve a 0.5 McFarland Standard. […] Plates were allowed to dry in a sterile location. After drying, the plates were covered with foil to prevent any photo-damage to the hemin and placed in the anaerobic chamber for 1 hour to reduce the media. The broth culture was then spotted onto the plates and covered with foil. Plates were allowed to dry completely before inverting them for incubation for 48 hours. Plates were analyzed and MIC recorded.

[4] = test system: Lachnoclostridium pacaense; assay: MIC determination, stool Firmicute isolates; type: cell-based; conditions: Clostridium pacaense, N=1
gut microbiome = assay: Germ-free humanized mouse study, 16S rRNA gut microbiome analysis; type: in vivo; conditions: humanized germ-free mice; for proportional change of Bacteroidetes (in words): phylum level
Description: Germ-free (GF) mice (six per group) were randomly assigned to IBZ, VAN, FDX, MTZ, or control groups.
An oral gavage of healthy human-derived fecal slurry was given to GF mice. The humanized mice were housed in a sterile biological safety cabinet (BSC) for one week to allow the donor gut microbiome to establish. Humanized mice were then moved to sterile, micro-isolator cages and pellet chow diet was exchanged for a powder chow diet. The humanized mice were then allowed one week to acclimate to the powder chow diet. In addition, a stool sample was obtained prior to the change in diet (baseline 1). At day 14, once the mice acclimated to the powder chow diet, a second baseline stool sample was obtained (baseline 2) and antibiotic treatment was started. The appropriate antibiotics were added to the powder chow diet for 10 days. At day 16, two days after beginning antibiotic treatment, another stool sample was collected (ABX-1). During the 10-day antibiotic treatment, powder chow dishes were refilled each day with fresh chow containing the randomly assigned antibiotic. Stool samples were again collected at day 24 (ABX-2).
To assess antibiotic microbiome effect, 16S rRNA metagenomics was used on stool samples that were collected at day 0 (baseline 1 and baseline 2) and after 2 and […] of treatment with antibiotics. Bulk DNA was extracted from stool samples using the DNeasy® PowerSoil® Kit. The V4 region of the bacterial 16S rRNA gene was sequenced using the Illumina MiSeq and CLC Genomics Workbench. Raw sequencing reads were processed and curated using the mothur (v.1.48.0) software package and the mothur MiSeq SOP was followed as outlined in Schloss, P. D., et al., Introducing mothur: open-source, platform-independent, community supported software for describing and comparing microbial communities. Appl Environ Microbiol, 2009. 75(23): p. 7537-41 (see also, Kozich, J. J., et al., Development of a dual-index sequencing strategy and curation pipeline for analyzing amplicon sequence data on the MiSeq Illumina sequencing platform. Appl Environ Microbiol, 2013. 79(17): p. 5112-20.). All data visualization and statistical analysis were performed using R studio (R Core Team (2023). R: A Language and Environment for Statistical Computing, Vienna, Austria.).

[5] = test system: Paeniclostridium sordellii; assay: MIC determination, stool Firmicute isolates; type: cell-based; conditions: Paraclostridium sordellii
Enterococcus pseudoavium = assay: MIC determination, stool Firmicute isolates; type: cell-based; conditions: N=1
[6] = test system: flagellar genes fliA, flgB, fliC in C. difficile strain CD 630; assay: Flagellar gene expression by qRT-PCR
Clostridium butyricum = assay: microbe, parasite or virus in culture; type: cell-based
[7] = test system: Erysipelatoclostridium ramosum; assay: MIC determination, stool Firmicute isolates; type: cell-based; conditions: Thomasclavelia ramosa
[8] = test system: certain Firmicutes (Lachnospiraceae and Lactobacilluseae); assay: MIC, isolated gut microbiota species: certain Firmicutes; type: cell-based; conditions: inactive
Description: as §1

[9] = antibiotic in powder chow 10 days
[10] = antibiotic in powder chow 10 days, compared to Baseline 2 (D14)

O=c1[nH]c(NCc2ccc(Cl)c(Cl)c2)nc2ncn(CCN3CCOCC3)c12 [Ibezapolstat, 2-((3,4-dichlorobenzyl)amino)-7-(2-morpholinoethyl)-1,7-dihydro-6H-purin-6-one]
cell morphology [1]: elongated cell phenotype; also recorded: dose-dependent effect on C. difficile cell length
C. diff growth (CFU/mL) and biomass at sub-MIC compared to control ([2]; 0.4× MIC): reduced
growth in early biofilms at supra-MIC ([2]; 40× MIC, after 48 hours of treatment): eradicated growth
MBIC ([2]; C. diff. strain R20291, Minimum Biofilm Inhibitory Concentration): 4 µg/mL
MIC ([2]; Clostridioides difficile, C. diff. strain R20291, read-out: MIC): 4 µg/mL (≈ 9.45 µM)
MIC [3]: > 64 µg/mL
MIC50 [4]: 25 µg/mL (≈ 59.1 µM)
proportional change of Bacteroidetes (in words) (gut microbiome): proportional increases
proportional change of Bacteroidetes (in words) (gut microbiome; listed as IBZ): significant proportional increase
Average Change in Metric ± SD, Bray-Curtis Dissim. to Baseline 1 (gut microbiome; [9]): 0.81 ± 0.02
Average Change in Metric ± SD, Bray-Curtis Dissim. to Baseline 2 (gut microbiome; [9]): 0.68 ± 0.03
Avg. Change in Relative Abundance ± SD, Actinobacteria (gut microbiome; [10]): 0.02% ± 0.08%
Avg. Change in Relative Abundance ± SD, Bacteroidetes (gut microbiome; [10]): 34% ± 2.96%
Avg. Change in Relative Abundance ± SD, Proteobacteria (gut microbiome; [10]): 9.7% ± 3.12%
MIC ([5]; read-out: MIC Max): 12.5 µg/mL (≈ 29.5 µM)
MIC50 ([5]; Paeniclostridium sordellii, N=4): 1.5 µg/mL (≈ 3.54 µM)
MIC ([5]; Paeniclostridium sordellii, N=4, read-out: MIC Min): 0.75 µg/mL (≈ 1.77 µM)
MIC50 (Enterococcus pseudoavium): 100 µg/mL (≈ 236 µM)
reduction in motility and flagellar genes ([6]; 4-hour treatment with 0.25×MIC): up to 50%
flgB expression decreased versus non-treated control ([6]; CD 630, 0.5×MIC, 4 hours): about 30%
fliA expression attenuated versus non-treated control ([6]; CD 630, 0.5×MIC, 4 hours): about 60%
fliC expression decreased versus non-treated control ([6]; CD 630, 0.5×MIC, 4 hours): about 80%
decrease overall in flagellar gene expression ([6]; CD 630, sub-MIC (0.5×MIC), 4 hours, gluD control): 2-to-5 fold
MIC50 (Clostridium butyricum): 12.5 µg/mL (≈ 29.5 µM)
MIC (Clostridium butyricum; read-out: MIC Max, Clostridium butyricum, N=5): 100 µg/mL (≈ 236 µM)
MIC (Clostridium butyricum; read-out: MIC Min, Clostridium butyricum, N=5): 1.5 µg/mL (≈ 3.54 µM)
MIC (Clostridium butyricum; strain C. butyricum 1007): > 100 µg/mL
MIC (Clostridium butyricum; strain C. butyricum 1008): 1.5 µg/mL (≈ 3.54 µM)
MIC50 ([7]; N=5): 6.25 µg/mL (≈ 14.8 µM)
MIC ([7]; N=5, read-out: MIC Max): 100 µg/mL (≈ 236 µM)
MIC ([7]; N=5, read-out: MIC Min): 3.12 µg/mL (≈ 7.38 µM)
MIC [8]: > 64 µg/mL
